Tests used:
Assay type in all cases: in vivo
[1] = system: Yellow Fever Mosquito YFM (Aedes aegypti); assay: Bioassay on Yellow Fever Mosquito (YFM) larvae, 96-well plate; settings: mortality of about 1 day-old larvae, scored after 3 days
Procedure: Certain molecules disclosed in this document were tested against YFM using procedures described in the following paragraph. In the reporting of the results, the “YFM Rating Table” was used (See Table Section).
Master plates containing 400 μg of a molecule dissolved in 100 μL of dimethyl sulfoxide (DMSO) (equivalent to a 4000 ppm solution) are used. A master plate of assembled molecules contains 15 μL per well. To this plate, 135 μL of a 90:10 water:acetone mixture is added to each well. A robot (Biomek® NXP Laboratory Automation Workstation) is programmed to dispense 15 μL aspirations from the master plate into an empty 96-well shallow plate (“daughter” plate). There are 6 reps (“daughter” plates) created per master. The created daughter plates are then immediately infested with YFM larvae.
The day before plates are to be treated, mosquito eggs are placed in Millipore water containing liver powder to begin hatching (4 g. into 400 ml). After the daughter plates are created using the robot, they are infested with 220 μL of the liver powder/larval mosquito mixture (about 1 day-old larvae). After plates are infested with mosquito larvae, a non-evaporative lid is used to cover the plate to reduce drying. Plates are held at room temperature for 3 days prior to grading. After 3 days, each well is observed and scored based on mortality.
The results are indicated in the table entitled “Table ABC: Biological Results” (See Table Section).

CEW (Helicoverpa zea) = assay: Bioassay on Corn Earworm (CEW), 128-well diet tray; settings: Helicoverpa zea, 168 h, percent mortality, second instar larvae, five to seven days; for pest or weed control at 50 µg/cm2: 50 μg/cm^2 on diet, read-out: Rating CEW; for pest or weed control at 0.5 µg/cm2: 0.5 μg/cm^2 on diet, read-out: Rating CEW (*Tested at 0.5 μg/cm^2)
Procedure: (§1) Certain molecules disclosed in this document were tested against BAW and CEW using procedures described in the following examples. In the reporting of the results, the “BAW & CEW Rating Table” was used (See Table Section).
Bioassays on CEW (Helicoverpa zea)
(§2) Trays were covered with a clear self-adhesive cover and held at 25° C., 14:10 light-dark for five to seven days. Percent mortality was recorded for the larvae in each well; activity in the eight wells was then averaged. The results are indicated in the table entitled “Table ABC: Biological Results” (See Table Section).

BAW (Spodoptera exigua) = assay: Bioassay on Beet Armyworm (BAW), 128-well diet tray; settings: Spodoptera exigua, 168 h; percent mortality, second instar larvae, 50 μg/cm^2 on diet, five to seven days; read-out: Rating BAW
Procedure: as §1
Bioassays on BAW (Spodoptera exigua)
as §2

| Structure (SMILES) | Rating YFM [1] | pest or weed control at 50 µg/cm2 (CEW (Helicoverpa zea)) [%] | pest or weed control at 50 µg/cm2 (BAW (Spodoptera exigua)) [%] | pest or weed control at 0.5 µg/cm2 (CEW (Helicoverpa zea)) [%] |
| --- | --- | --- | --- | --- |
| Cc1cccc(C)c1N/C(=N/C(=O)Nc1ccc(-c2ncn(-c3ccc(C(F)(F)F)cc3)n2)cc1)SCOC(=O)C(C)C [Molecule A3, (E)-(N′-(2,6-Dimethylphenyl)-N-(4-(1-(4-(trifluoromethyl)phenyl)-1H-1,2,4-triazol-3-yl)phenylcarbamoyl)carbamimidoylthio) methyl isobutyrate] | A (80-100) | 50 to 100 | 50 to 100 | – |
| CCC(C)c1ccccc1N1C(=O)CS/C1=N\C(=O)Nc1ccc(-c2ncn(-c3ccc(OC(F)(F)F)cc3)n2)cc1 (stereo not drawn) [Molecule A18, (Z)-1-(3-(2-(sec-butyl)phenyl)-4-oxothiazolidin-2-ylidene)-3-(4-(1-(4-(trifluoromethoxy)phenyl)-1H-1,2,4-triazol-3-yl)phenyl)urea] | A (80-100) | 50 to 100 | 50 to 100 | – |
| COc1ccc(N/C(O)=C/C(=O)Nc2ccc(-c3ncn(-c4ccc(OC(F)(F)F)cc4)n3)cc2)c(C(C)C)c1 [Molecule A34, (Z)-3-hydroxy-3-(2-isopropyl-4-methoxyphenylamino)-N-(4-(1-(4-(trifluoromethoxy)phenyl)-1H-1,2,4-triazol-3-yl)phenyl)acrylamide] | A (80-100) | 50 to 100 | 50 to 100 | – |
| CCc1ccccc1N1C(=O)CS/C1=N\C(=O)Nc1ccc(-c2ncn(-c3ccc(OC(F)(F)F)cc3)n2)cc1 [Molecule A35] | A (80-100) | 50 to 100 | 50 to 100 | – |
| COc1ccc(N/C(=N\C(=O)Nc2ccc(-c3ncn(-c4ccc(OC(F)(F)F)cc4)n3)cc2)SCOC(=O)C(C)C)cc1 [Molecule A62] | A (80-100) | 50 to 100 | 50 to 100 | – |
| Cc1ccccc1N1C(=O)CS/C1=N\C(=O)Nc1ccc(-c2ncn(-c3ccc(OC(F)(F)F)cc3)n2)cc1 [Molecule A65] | A (80-100) | – | 50 to 100 | 50 to 100 |
| CCCc1ccccc1N1C(=O)CS/C1=N\C(=O)Nc1ccc(-c2ncn(-c3ccc(OC(F)(F)F)cc3)n2)cc1 [Molecule A69] | A (80-100) | – | 50 to 100 | 50 to 100 |
| CC(C)c1ccc(F)cc1N1C(=O)CS/C1=N\C(=O)Nc1ccc(-c2ncn(-c3ccc(OC(F)(F)F)cc3)n2)cc1 [Molecule A86] | – | – | 50 to 100 | 50 to 100 |
| Cc1ccc(C(C)C)c(N2C(=O)CS/C2=N\C(=O)Nc2ccc(-c3ncn(-c4ccc(OC(F)(F)F)cc4)n3)cc2)c1 [Molecule A87] | – | – | 50 to 100 | 50 to 100 |
| Cc1ccc(N2C(=O)CS/C2=N\C(=O)Nc2ccc(-c3ncn(-c4ccc(OC(F)(F)F)cc4)n3)cc2)c(C(C)C)c1 [Molecule A88] | – | – | 50 to 100 | 50 to 100 |
| Cc1ccc(F)c(N/C(S)=N/C(=O)Nc2ccc(-c3ncn(-c4ccc(OC(F)(F)F)cc4)n3)cc2)c1 [Molecule A89] | – | – | 50 to 100 | 50 to 100 |
| O=C(/N=C1\SCC(=O)N1c1ccc(Cl)cc1Cl)Nc1ccc(-c2ncn(-c3ccc(OC(F)(F)F)cc3)n2)cc1 [Molecule A92] | – | – | 50 to 100 | 50 to 100 |
| Cc1c(F)cccc1N1C(=O)CS/C1=N\C(=O)Nc1ccc(-c2ncn(-c3ccc(OC(F)(F)F)cc3)n2)cc1 [Molecule A93] | – | – | 50 to 100 | 50 to 100 |
| Cc1ccc(F)c(N2C(=O)CS/C2=N\C(=O)Nc2ccc(-c3ncn(-c4ccc(OC(F)(F)F)cc4)n3)cc2)c1 [Molecule A94] | – | – | 50 to 100 | 50 to 100 |
| CCc1cccc(C)c1N/C(S)=N/C(=O)Nc1ccc(-c2ncn(-c3ccc(OC(F)(F)F)cc3)n2)cc1 [Molecule A97] | – | – | 50 to 100 | 50 to 100 |
| COc1ccc(N/C(S)=N/C(=O)Nc2ccc(-c3ncn(-c4ccc(OC(F)(F)F)cc4)n3)cc2)c(C)c1 [Molecule A98] | – | – | 50 to 100 | 50 to 100 |

| Structure (SMILES) | Rating YFM [1] | pest or weed control at 50 µg/cm2 (CEW (Helicoverpa zea)) [%] | pest or weed control at 50 µg/cm2 (BAW (Spodoptera exigua)) [%] | pest or weed control at 0.5 µg/cm2 (CEW (Helicoverpa zea)) [%] |
| --- | --- | --- | --- | --- |
| Cc1cc(C)cc(N/C(S)=N/C(=O)Nc2ccc(-c3ncn(-c4ccc(OC(F)(F)F)cc4)n3)cc2)c1 [Molecule A100] | – | – | 50 to 100 | 50 to 100 |
| O=C(/N=C(\S)Nc1ccccc1Cc1ccccc1)Nc1ccc(-c2ncn(-c3ccc(OC(F)(F)F)cc3)n2)cc1 [Molecule A101] | – | – | 50 to 100 | 50 to 100 |
| CCc1cccc(C)c1N1C(=O)CS/C1=N\C(=O)Nc1ccc(-c2ncn(-c3ccc(OC(F)(F)F)cc3)n2)cc1 [Molecule A103] | – | – | 50 to 100 | 50 to 100 |
| O=C(/N=C1\SCC(=O)N1c1ccccc1Cc1ccccc1)Nc1ccc(-c2ncn(-c3ccc(OC(F)(F)F)cc3)n2)cc1 [Molecule A105] | – | – | 50 to 100 | 50 to 100 |
| Cc1cccc(N/C(S)=N/C(=O)Nc2ccc(-c3ncn(-c4ccc(OC(F)(F)F)cc4)n3)cc2)c1C(C)C [Molecule A106] | – | – | 50 to 100 | 50 to 100 |
| CC(C)c1c(F)cccc1N/C(S)=N/C(=O)Nc1ccc(-c2ncn(-c3ccc(OC(F)(F)F)cc3)n2)cc1 [Molecule A107] | – | – | 50 to 100 | 50 to 100 |
| Cc1cccc(N2C(=O)CS/C2=N\C(=O)Nc2ccc(-c3ncn(-c4ccc(OC(F)(F)F)cc4)n3)cc2)c1C(C)C [Molecule A108] | – | – | 50 to 100 | 50 to 100 |
| CC(C)c1c(F)cccc1N1C(=O)CS/C1=N\C(=O)Nc1ccc(-c2ncn(-c3ccc(OC(F)(F)F)cc3)n2)cc1 [Molecule A109] | – | – | 50 to 100 | 50 to 100 |
| COc1ccc(Cl)cc1N1C(=O)CS/C1=N\C(=O)Nc1ccc(-c2ncn(-c3ccc(OC(F)(F)F)cc3)n2)cc1 [Molecule A111] | – | – | 50 to 100 | 50 to 100 |
| CC(C)c1ccccc1N/C(S)=N/C(=O)Nc1ccc(-c2ccn(-c3ccc(OC(F)(F)F)cc3)n2)cc1 [Molecule A114, N-[[(2-isopropyllphenyl)amino]thioxomethyl]-N′-((4-(1-(4-(trifluoromethoxy)phenyl)-1H-pyrazol-3-yl)phenyl))urea] | – | – | 50 to 100 | 50 to 100 |
| CC(C)c1ccccc1N1C(=O)CS/C1=N\C(=O)Nc1ccc(-c2ncn(-c3ccc(OC(F)(F)C(F)(F)F)cc3)n2)cc1 [Molecule A115] | – | – | 50 to 100 | 50 to 100 |
| CC(C)c1cc(F)ccc1N/C(S)=N/C(=O)Nc1ccc(-c2ncn(-c3ccc(OC(F)(F)F)cc3)n2)cc1 [Molecule A116] | – | – | 50 to 100 | 50 to 100 |
| CC(C)c1cc(F)ccc1N1C(=O)CS/C1=N\C(=O)Nc1ccc(-c2ncn(-c3ccc(OC(F)(F)F)cc3)n2)cc1 [Molecule A117] | – | – | 50 to 100 | 50 to 100 |
| CC(C)n1nccc1N/C(S)=N/C(=O)Nc1ccc(-c2ncn(-c3ccc(OC(F)(F)F)cc3)n2)cc1 [Molecule A119] | – | – | 50 to 100 | 0 to 50 |
| CC(C)n1nccc1N1C(=O)CS/C1=N\C(=O)Nc1ccc(-c2ncn(-c3ccc(OC(F)(F)F)cc3)n2)cc1 [Molecule A121] | – | – | 50 to 100 | 50 to 100 |

Reference: patent US9440964B2, “Pesticidal compositions and processes related thereto” (Dow AgroSciences LLC, priority 2011, dated 2016)
